The subject of test [1] is HL-60. Put plainly: Cytotoxicity against human HL60 cells. It is filed as functional, cell-based.
Test [2] in a line: Cytotoxicity against human Bel7404 cells. It is filed as functional. Particulars: BEL-7404, read-out: ED50 (the source's name).

Activity calls are given as the source filed them. No cut-off for these calls is given here. Where a SMILES comes first, the peptide text is derived from it. Where only a bound is given, the exact number is not on record here.

The source of these data is ChEMBL document CHEMBL1158896, “Isolation and structure of the cytotoxic cycloheptapeptide phakellistatin 13” (2003).

As for `CC(C)C[C@@H]1NC(=O)[C@H]([C@@H](C)O)NC(=O)[C@@H]2CCCN2C(=O)CNC(=O)[C@H](Cc2ccccc2)NC(=O)[C@@H]2CCCN2C(=O)[C@H](Cc2c[nH]c3ccccc23)NC1=O` (cyclo(FGPTLWP)), the result in test [1] was inactive.
For the compound `CC(C)C[C@@H]1NC(=O)[C@H](Cc2c[nH]c3ccccc23)NC(=O)[C@@H]2CCCN2C(=O)[C@H](Cc2ccccc2)NC(=O)CNC(=O)[C@@H]2CCCN2C(=O)[C@H]([C@@H](C)O)NC1=O` [PHAKELLISTATIN 13] (cyclo(FPWLTPG)), the EC50 in test [2] is less than 0.01 µg/mL.
